From the CheMixHub ionic liquid set

Test: xn = mol fraction of the nth substance listed
Details: 100 kPa

CCCCCC[P+](CCCC)(CCCC)CCCC.F[B-](F)(F)F + CC#N
viscosity [mPa·s]
Details | x1 = 0.004011 | x1 = 0.008155 | x1 = 0.01203 | x1 = 0.01615 | x1 = 0.01996 | x1 = 0.02404 | x1 = 0.02792 | x1 = 0.03151 | x1 = 0.03559 | x1 = 0.03974
293.15 K | 0.374 | 0.398 | 0.419 | 0.446 | 0.47 | 0.499 | 0.526 | 0.554 | 0.585 | 0.621
298.15 K | 0.357 | 0.379 | 0.399 | 0.423 | 0.446 | 0.472 | 0.497 | 0.523 | 0.551 | 0.585
303.15 K | 0.341 | 0.361 | 0.38 | 0.403 | 0.423 | 0.448 | 0.47 | 0.495 | 0.521 | 0.552
308.15 K | 0.326 | 0.345 | 0.362 | 0.383 | 0.403 | 0.425 | 0.446 | 0.469 | 0.493 | 0.522
313.15 K | 0.313 | 0.331 | 0.347 | 0.366 | 0.384 | 0.406 | 0.425 | 0.446 | 0.468 | 0.495
318.15 K | 0.3 | 0.317 | 0.332 | 0.35 | 0.367 | 0.387 | 0.405 | 0.424 | 0.445 | 0.47
